The record followed here is US20030198941A1, “Method for making an HIV vaccine” (priority 2000, published 2003).

In test [1] the test system is epitope-specific CD8+ PBMC of SIV-infected animals. The class given is cell-based, rhesus macaque. The note with it: for avidity of CTL response: PBMC specific for late escaping epitopes; for EC50: read-out: ½maximal IFN-γ release (peptide concentration).
In test [2] the test system is Tat SL8- and Gag CM9-specific CTL lines. As to the kind of experiment: 51Cr-release cytotoxicity assay with peptide dilutions, in vitro CTL lines. Type of test: cell-based, rhesus macaque. The following applies: CTL lines generated with high (1 μM) and low (1 nM) peptide; read-out: ½maximal specific lysis (peptide concentration).
Test [3] has as its system epitope-specific CTL lines. As to the kind of experiment: Intracellular IFN-γ staining (ICS) with peptide dilutions, in vitro CTL lines. The note with it: for avidity of CTL response: CTL lines against acute escaped epitopes. The class given is cell-based, rhesus macaque.
Test [4] addresses rhesus MHC class I molecule Mamu-A*01 (rhesus macaque). As to the kind of experiment: competition with 125I-labeled […] for Mamu-A*01; relative to […].
Test [5] shares this target. Kind of test: competition with 125I-labeled […] for Mamu-A*01; (1.0-relative binding average)x100.
The target is the same in test [6].
Test [7] concerns rhesus MHC class I molecule Mamu-A*01. As to the kind of experiment: Mamu-A*01 peptide binding assay (inhibition of binding of a radiolabeled probe peptide). More on the design: species or system rhesus macaque. The following applies: for % Binding reduction: (1.0-relative binding average)x100, versus index peptide STPESANL; for IC50: soluble Mamu-A*01; for Relative Binding Average: relative to the binding affinity of Tat28-35 STPESANL to Mamu-A*01. The protocol:
Quantitative assays for the binding of peptides to soluble Mamu-A*01 molecules on the basis of the inhibition of binding of a radiolabeled standard probe peptide to detergent-solubilized MHC molecules were performed as previously described (Allen, T. M., et al., J. Immunol. 160:6062-6071, 1998). A position 1 C→A analog of the SIV gag 181-190 peptide ([…]) was utilized as the radiolabeled probe. In the case of competitive assays, the concentration of peptide yielding 50% inhibition of the binding of the radiolabeled probe peptide was calculated. Peptides were initially tested at one or two high doses. The IC50 of peptides yielding positive inhibition were then determined in subsequent experiments, in which two to six further dilutions were tested, as necessary. Since under the conditions to be utilized, where [label]<[MHC] and IC50 ≧[MHC], the measured IC50 values are reasonable approximations of the true Kd values. Each competitor peptide was tested in two to four completely independent experiments. As a positive control, in each experiment the unlabeled version of the radiolabeled probe was tested and its IC50 measured.

The subject of test [8] is CTL lines stimulated with the SL8 index peptide. Kind of test: CTL analyses of SL8-stimulated T-cell lines against index and variant peptides. Type of test: cell-based, rhesus macaque. The following applies: E:T ratio 25:1, three peptide dilutions. The protocol: FIG. 3 is a set of six graphs describing CTL analyses of CD8-positive T-lymphocyte cell lines stimulated with SL8 peptide. Cell lines were stimulated with the index peptide (SL8) and autologous B-LCL. After 2 weeks in culture, these T-cell lines were used in CTL analyses at an Effector:Target (E:T) ratio of 25:1 with the index peptide and the variants. Three different dilutions of peptides were tested.
CTL cultures were established from peripheral blood samples of SIV-infected rhesus macaques drawn in EDTA tubes and CTL were cultured and assayed as previously described (Evans, D. T., et al., supra, 1999).

Where [9] appears, read: competition against 125-labeled peptide […].
The mark [10] stands for this setting: competition against 125-labeled peptide ATPYDINQML

Where “and” joins values, the source holds several entries; their conditions need not be identical. Equal values may be shown once. Read-outs that look alike come from different tables or passages of the source. A value given as a limit tells only on which side of the number the result lay.

Turning to ARRHRILDIYL [Nef_AL11], the “avidity of CTL response” value in test [1] (ICS) is recorded as “low avidity”.
For CTPYDINQM [Gag CM9], the EC50 in test [1] is 8 nM; in test [2] it was 1 to 10 nM and 1 to 40 nM.
Turning to GDYKLVEI [Env_GI8], the “avidity of CTL response” value in test [1] (ICS) is listed as “low avidity”.
Turning to GLDKGLSSL [GL9], in test [3], the “avidity of CTL response” value was “high avidity”.
For KRQQELLRL [Env_KL9], the “avidity of CTL response” value in test [1] (ICS) was “low avidity”.
For STPESANL, the EC50 in test [1] (epitope-specific PBMC, ICS) is 0.11 nM; in test [3] (CTL lines generated in vitro, read-out: ½maximal IFN-γ production (peptide concentration)), under 0.5 nM; in test [2] it was 0.05 to 0.1 nM.
In test [4], “Tat28-35 variant ------P (proline at P8) (peptide)” returned a Relative Binding Average of 0.009. The % Binding reduction in test [5] was over 99%.
As for “Tat28-35 variant ------Q (glutamine at P8) (peptide)”, the Relative Binding Average in test [4] came out at 0.003. In addition, the % Binding reduction in test [5] was over 99%.
On the same counts, the results for “Tat28-35 variant ------R (arginine at P8) (peptide)” are 0.003 and over 99%.
Regarding “Tat28-35 variant ----L-- (leucine at P5) (peptide)”, in test [4], the Relative Binding Average amounted to 0.155. This substance yielded a % Binding reduction in test [5] of 85%.
For the substance “Tat28-35 variant -I---- (isoleucine at P2) (peptide)”, the Relative Binding Average in test [4] was 0.009. In test [5], the % Binding reduction is over 99%.
“Tat28-35 variant P------ (proline at P1) (peptide)” registered a Relative Binding Average in test [4] of 0.43. This substance displayed a % Binding reduction in test [6] of 67%.
For YTSGPGIRY [YY9], the “avidity of CTL response” value in test [3] is given as “high avidity”.
For orientation: IC50 means the point on the concentration scale where inhibition reaches its midpoint. Lower therefore signals higher potency. For the substance “variant of the Tat STPESANL epitope with arginine at P8 [------R]”, in test [7], the “% Binding reduction” value was over 99% and the “Relative Binding Average” value was 0.003. In addition, the IC50 in test [7] (setting [9]) is 15100 nM.
Take “variant of the Tat STPESANL epitope with glutamine at P8 [------Q]”: in test [7], the “% Binding reduction” value is reported as over 99% and the “Relative Binding Average” value was determined as 0.003. In test [7] (setting [10]), the IC50 turned out to be 13200 nM.
For the substance “variant of the Tat STPESANL epitope with isoleucine at P2 [-I----]”, in test [7], the “% Binding reduction” value was over 99% and the “Relative Binding Average” value stood at 0.009. Further, the IC50 in test [7] (setting [9]) stood at 4610 nM.
Consider “variant of the Tat STPESANL epitope with leucine at P5 [----L--]”, for which the “CTL recognition / sensitizing targets for CTL lysis” value in test [8] is given as “least efficient at sensitizing targets for CTL lysis”. In addition, the “% Binding reduction” value was 85% in test [7], over 80% in test [7] (listed as leucine at P5) and “more than 80%” in test [7] (listed as leucine substitution at P5). In addition, in test [7] (setting [10]), the IC50 turned out to be 281 nM. Moreover, the “Relative Binding Average” value in test [7] was 0.155.
As to “variant of the Tat STPESANL epitope with proline at P1 [P------]”, the “% Binding reduction” value in test [7] is reported as 67%; in test [7] (listed as proline at P1) it was “more than 50%”; in test [7] (listed as proline substitution at P1) it was “more than 50%”. This substance gave an IC50 in test [7] (setting [9]) of 100 nM. Also, the “Relative Binding Average” value in test [7] is recorded as 0.43.
As to “variant of the Tat STPESANL epitope with proline at P8 [------P]”, in test [7], the “% Binding reduction” value is given as over 99% and the “Relative Binding Average” value is 0.009. This substance returned an IC50 in test [7] (setting [9]) of 4570 nM.
